The values that follow come from PMC5116089, “Sulfheme formation during homocysteine S-oxygenation by catalase in cancers and neurodegenerative diseases” (Nature Communications, 2016).

For this assay, the target named is T1, Bovine liver catalase (Bos taurus, UniProt P00432).
T1 construct: Bovine liver catalase was also purchased from Sigma-Aldrich; purchased Sigma-Aldrich; host or cells: bovine liver
T1 sequence (P00432 2-527 limits assumed): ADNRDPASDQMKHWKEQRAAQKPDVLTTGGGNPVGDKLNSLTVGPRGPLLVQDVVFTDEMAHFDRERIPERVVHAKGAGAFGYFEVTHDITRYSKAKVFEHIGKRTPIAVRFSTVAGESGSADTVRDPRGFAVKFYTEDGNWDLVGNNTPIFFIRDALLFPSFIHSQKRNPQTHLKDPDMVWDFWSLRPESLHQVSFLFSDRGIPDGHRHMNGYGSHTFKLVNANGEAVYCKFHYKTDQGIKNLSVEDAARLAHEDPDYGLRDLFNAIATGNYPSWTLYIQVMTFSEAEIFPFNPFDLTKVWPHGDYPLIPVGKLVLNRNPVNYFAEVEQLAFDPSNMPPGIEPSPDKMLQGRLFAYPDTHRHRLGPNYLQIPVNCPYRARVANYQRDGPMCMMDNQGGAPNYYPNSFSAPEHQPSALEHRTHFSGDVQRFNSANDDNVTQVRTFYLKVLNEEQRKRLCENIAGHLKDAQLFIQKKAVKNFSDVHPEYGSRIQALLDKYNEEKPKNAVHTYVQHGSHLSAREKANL
As to the kind of experiment: Time course of catalase inactivation by HCys (activity test). Type of assay: biochemical. The settings on record: CAT + 2 mM HCys, 1 mM DTPA, pH 7.4, with the additive named (DMPO 100 mM, dimedone 4 mM, SOD 40 U); n=2±s.d. The protocol:
CAT activity was measured on an Uvikon 941 spectrophotometer equipped with a temperature controlled water bath (±1 °C) by following the disappearance of H2O2 at 240 nm over 30–120 s at 25 °C. Catalase activity was calculated based on the rate of decomposition of hydrogen peroxide, which is proportional to the reduction of the absorbance at 240 nm. Experiments were carried out in a 3 ml quartz cuvette containing 11.7 mM H2O2 in 50 mM KPi, pH 7.4±1 mM DTPA and the reaction was initiated by adding 0.3–0.6 pmoles of CAT. The effect of biological thiols on the activity of CAT under physiological conditions was determined from a solution of CAT (30–60 nM) preincubated at 25 °C for at least 120 min as a function thiol concentration (0–40 mM for HCys and Cys, 0–100 mM for GSH) in 50 mM KPi, pH 7.4, 1 mM DTPA. Control experiments (biological thiols alone) were also performed in parallel. In each case, 10 μl of the reaction mixture (biological thiols±CAT) was added to the cuvette containing the H2O2 solution to initiate the reaction. Similarly, the effect of biological thiols on the activity of CAT under pathological conditions was determined from a solution of CAT (30–60 nM) containing a 2.124±0.386 molar excess of iron that was preincubated with various concentrations of thiols (0–1 mM) for at least 120 min at 25 °C in 50 mM KP at pH 7.4. The relative half inhibitory concentration (IC50) values were obtained by plotting the relative activity of CAT (A, in per cent) as a function of the concentration of thiol-compounds (RSH) and by fitting the data with the following four parameter logistic equation: A=Amin+(Amax−Amin)/(1+([RSH]/IC50)^n), where Amax is the maximal activity of CAT (constrained at 100%), Amin is the minimum activity achieved at saturating concentration of RSH and n is the Hillslope that characterizes the slope of the curve at its midpoint. The inactivation rate (kinact, min^−1) was extracted from the time course of the inactivation of CAT bioactivity using a fixed concentration of HCys. Accordingly, a solution of CAT (3.5–5 μM) was incubated with 2 mM L-HCys in 50 mM KPi, pH 7.4, 1 mM DTPA. Aliquots (10 μl) were taken at intervals (0–480 min), diluted 1:50 in 50 mM KPi, pH 7.4, 1 mM DTPA and assayed for CAT activity as described above. […] The effect of NaSH on the consumption of H2O2 in cell lysates was determined from a solution of cell lysates (0.5–3 mg ml^−1) incubated on ice with various concentrations of NaSH (0–200 μM). […]

In the case of `NC(CCS)C(=O)O` (stereo not shown) [HCys, homocysteine], the kinact (as a rule, the maximal first-order rate at which the target is inactivated) was 0.000483 s⁻¹.
